Test results taken from patent US11000033B2, “Ketone or oxime compound, and herbicide” (NISSAN CHEMICAL CORPORATION, priority 2014, dated 2021).

Legend:
Assay type in all cases: in vivo
transplanted rice plant = assay: Test Example 1: effect on crop, application before weed generation in submerged conditions (symbol a); conditions: application herbicide amount 320 g/ha
Procedure, shortened: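 Rice at 2.5 leaf stage transplanted into submerged soil (4 cm depth) sown with three weed species; herbicide applied before weed emergence.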

[1] = system: Echinochloa crus-galli var. crus-galli; assay: Test Example 3: herbicidal effect by foliage application, Wagner pot (symbol H); conditions: application herbicide amount 320 g/ha
Procedure, shortened: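 Seeds sown in alluvial soil kept under 0.1–0.5 cm water, greenhouse 25–30 °C; 14 d growth. Leaves treated by small sprayer with water-diluted emulsion at a predetermined rate. Effect graded by set scale, 3 weeks.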

Alopecurus myosuroides [2] = assay: Test Example 4: herbicidal effect by soil treatment (symbol J); conditions: application herbicide amount 320 g/ha
Procedure, shortened: (§1)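 Seeds were sown in sterilized diluvial soil, covered with about 1.5 cm of soil, and the soil surface was sprayed with a water-diluted emulsion of the compound at a predetermined rate. Plants grew in a greenhouse at 25° C. to 30° C.; effects were scored visually 3 weeks after application.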

Chenopodium album [3] = assay: Test Example 4: herbicidal effect by soil treatment (symbol O); conditions: application herbicide amount 320 g/ha
Procedure, shortened: as §1

Stellaria media = assay: Test Example 4: herbicidal effect by soil treatment (symbol P); conditions: application herbicide amount 320 g/ha
Procedure, shortened: as §1

Galium spurium = assay: Test Example 4: herbicidal effect by soil treatment (symbol Q); conditions: application herbicide amount 320 g/ha
Procedure, shortened: as §1

corn [4] = assay: Test Example 4: effect on crop by soil treatment (symbol c); conditions: application herbicide amount 320 g/ha
Procedure, shortened: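 Sterilized diluvial soil, spot sowing, ~1.5 cm soil cover; greenhouse 25–30° C.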

[5] = system: Echinochloa crus-galli var. crus-galli; assay: Test Example 5: herbicidal effect by foliage application, plastic box (symbol H); conditions: 320 g/ha, 3 weeks after application
Procedure, shortened: (§2)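 Post-emergence spray; diluvial soil (sterilized), ~1.5 cm seed cover; greenhouse 25–30° C; 14-day-old plants; water-diluted emulsion at predetermined dose; visual score at 3 wk post-treatment.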

Alopecurus myosuroides [6] = assay: Test Example 5: herbicidal effect by foliage application, plastic box (symbol J); conditions: 320 g/ha, 3 weeks after application
Procedure, shortened: as §2

Lolium multiflorum Lam. = assay: Test Example 5: herbicidal effect by foliage application, plastic box (symbol K); conditions: 320 g/ha, 3 weeks after application
Procedure, shortened: as §2

Apera spica-venti = assay: Test Example 5: herbicidal effect by foliage application, plastic box (symbol L); conditions: 320 g/ha, 3 weeks after application
Procedure, shortened: as §2

Amaranthus retroflexus = assay: Test Example 5: herbicidal effect by foliage application, plastic box (symbol N); conditions: 320 g/ha, 3 weeks after application
Procedure, shortened: as §2

Chenopodium album [7] = assay: Test Example 5: herbicidal effect by foliage application, plastic box (symbol O); conditions: 320 g/ha, 3 weeks after application
Procedure, shortened: as §2

Veronica persica = assay: Test Example 5: herbicidal effect by foliage application, plastic box (symbol R); conditions: 320 g/ha, 3 weeks after application
Procedure, shortened: as §2

corn [8] = assay: Test Example 5: effect on crop by foliage application, plastic box (symbol c); conditions: 320 g/ha, 3 weeks after application
Procedure, shortened: (§3)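 A greenhouse held between 25° C. and 30° C. was used to grow plants sown spot-wise, beneath ~1.5 cm of soil, in boxes of sterilized diluvial soil.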

soybean = assay: Test Example 5: effect on crop by foliage application, plastic box (symbol d); conditions: 320 g/ha, 3 weeks after application
Procedure, shortened: as §3

Abutilon theophrasti = assay: Test Example 4: herbicidal effect by soil treatment (symbol M); conditions: application herbicide amount 320 g/ha
Procedure, shortened: as §1

Row | SMILES | Effect grade on crop, a: transplanted rice plant (transplanted rice plant) | herbicidal effect on H (Echinochloa crus-galli var. crus-galli), grade 0-5 [1] | Herbicidal effect grade, J: Alopecurus myosuroides (Alopecurus myosuroides [2]) | Herbicidal effect grade, O: Chenopodium album (Chenopodium album [3]) | Herbicidal effect grade, P: Stellaria media (Stellaria media) | Herbicidal effect grade, Q: Galium spurium (Galium spurium) | Effect on crop grade, c: corn (corn [4]) | H: Echinochloa crus-galli var. crus-galli, herbicidal effect (criteria of Test Example 1) [5] | J: Alopecurus myosuroides, herbicidal effect (criteria of Test Example 1) (Alopecurus myosuroides [6]) | K: Lolium multiflorum Lam., herbicidal effect (criteria of Test Example 1) (Lolium multiflorum Lam.) | L: Apera spica-venti, herbicidal effect (criteria of Test Example 1) (Apera spica-venti) | N: Amaranthus retroflexus, herbicidal effect (criteria of Test Example 1) (Amaranthus retroflexus) | O: Chenopodium album, herbicidal effect (criteria of Test Example 1) (Chenopodium album [7]) | R: Veronica persica, herbicidal effect (criteria of Test Example 1) (Veronica persica) | c: corn, effect on crop (criteria of Test Example 1) (corn [8]) | d: soybean, effect on crop (criteria of Test Example 1) (soybean) | Herbicidal effect grade, M: Abutilon theophrasti (Abutilon theophrasti)
1 | CON=C(C)C(C)C1CC(O)=C(c2c(C)cc(Br)cc2OC)C1=O (stereo not shown) [6-113] | 5 (Herbicidal ratio of 90% or more (almost completely withered)) | 5 (Herbicidal ratio of 90% or more (almost completely withered)) | 5 (Herbicidal ratio of 90% or more (almost completely withered)) | 0 (Herbicidal ratio of 5% or lower (almost no effect)) | 0 (Herbicidal ratio of 5% or lower (almost no effect)) | 0 (Herbicidal ratio of 5% or lower (almost no effect)) | 1 (Herbicidal ratio of 5% or higher and lower than 20%) | 5 (Herbicidal ratio of 90% or more (almost completely withered)) | 5 (Herbicidal ratio of 90% or more (almost completely withered)) | 5 (Herbicidal ratio of 90% or more (almost completely withered)) | 5 (Herbicidal ratio of 90% or more (almost completely withered)) | 0 (Herbicidal ratio of 5% or lower (almost no effect)) | 2 (Herbicidal ratio of 20% or higher and lower than 40%) | 0 (Herbicidal ratio of 5% or lower (almost no effect)) | 5 (Herbicidal ratio of 90% or more (almost completely withered)) | 0 (Herbicidal ratio of 5% or lower (almost no effect)) | 
2 | CC#Cc1cc(C)c(C2=C(O)CC(CC(C)=O)C2=O)c(C)c1 (stereo not shown) [7-010] | 5 (Herbicidal ratio of 90% or more (almost completely withered)) | 5 (Herbicidal ratio of 90% or more (almost completely withered)) | 5 (Herbicidal ratio of 90% or more (almost completely withered)) |  | 0 (Herbicidal ratio of 5% or lower (almost no effect)) | 0 (Herbicidal ratio of 5% or lower (almost no effect)) | 5 (Herbicidal ratio of 90% or more (almost completely withered)) | 5 (Herbicidal ratio of 90% or more (almost completely withered)) | 5 (Herbicidal ratio of 90% or more (almost completely withered)) | 5 (Herbicidal ratio of 90% or more (almost completely withered)) | 5 (Herbicidal ratio of 90% or more (almost completely withered)) | 1 (Herbicidal ratio of 5% or higher and lower than 20%) | 2 (Herbicidal ratio of 20% or higher and lower than 40%) | 4 (Herbicidal ratio of 70% or higher and lower than 90%) | 5 (Herbicidal ratio of 90% or more (almost completely withered)) | 3 (Herbicidal ratio of 40% or higher and lower than 70%) | 4 (Herbicidal ratio of 70% or higher and lower than 90%)
3 | CC(=O)CC1CC(O)=C(c2c(C)cc(C)cc2Br)C1=O (stereo not shown) [7-011] | 1 (Herbicidal ratio of 5% or higher and lower than 20%) | 5 (Herbicidal ratio of 90% or more (almost completely withered)) | 3 (Herbicidal ratio of 40% or higher and lower than 70%) |  | 0 (Herbicidal ratio of 5% or lower (almost no effect)) | 0 (Herbicidal ratio of 5% or lower (almost no effect)) | 3 (Herbicidal ratio of 40% or higher and lower than 70%) | 5 (Herbicidal ratio of 90% or more (almost completely withered)) | 4 (Herbicidal ratio of 70% or higher and lower than 90%) | 5 (Herbicidal ratio of 90% or more (almost completely withered)) | 3 (Herbicidal ratio of 40% or higher and lower than 70%) | 5 (Herbicidal ratio of 90% or more (almost completely withered)) | 3 (Herbicidal ratio of 40% or higher and lower than 70%) | 1 (Herbicidal ratio of 5% or higher and lower than 20%) | 2 (Herbicidal ratio of 20% or higher and lower than 40%) | 0 (Herbicidal ratio of 5% or lower (almost no effect)) | 0 (Herbicidal ratio of 5% or lower (almost no effect))
4 | CC(=O)CC1CC(O)=C(c2c(C)cc(OCC(F)(F)F)cc2C)C1=O (stereo not shown) [7-015] | 5 (Herbicidal ratio of 90% or more (almost completely withered)) | 5 (Herbicidal ratio of 90% or more (almost completely withered)) | 5 (Herbicidal ratio of 90% or more (almost completely withered)) |  | 0 (Herbicidal ratio of 5% or lower (almost no effect)) | 0 (Herbicidal ratio of 5% or lower (almost no effect)) | 5 (Herbicidal ratio of 90% or more (almost completely withered)) | 5 (Herbicidal ratio of 90% or more (almost completely withered)) | 5 (Herbicidal ratio of 90% or more (almost completely withered)) | 5 (Herbicidal ratio of 90% or more (almost completely withered)) | 5 (Herbicidal ratio of 90% or more (almost completely withered)) | 0 (Herbicidal ratio of 5% or lower (almost no effect)) | 3 (Herbicidal ratio of 40% or higher and lower than 70%) | 4 (Herbicidal ratio of 70% or higher and lower than 90%) | 5 (Herbicidal ratio of 90% or more (almost completely withered)) | 0 (Herbicidal ratio of 5% or lower (almost no effect)) | 0 (Herbicidal ratio of 5% or lower (almost no effect))
